Assay results reported in ChEMBL document CHEMBL1782053, “Differences in CYP3A4 catalyzed bioactivation of 5-aminooxindole and 5-aminobenzsultam scaffolds in proline-rich tyrosine kinase 2 (PYK2) inhibitors: retrospective analysis by CYP3A4 molecular docking, quantum chemical calculations and glutathione adduct detection using linear ion trap/orbitrap …” (Bioorg Med Chem Lett, 2009).

How the values were obtained:
[1] = Dissociation constant, pKa of the compound; format: physicochemical
Liver microsomes [2] = experiment: Metabolic stability in human liver microsome assessed as level of GSH adduct at 1 to 10 uM by ion trap/orbitrap MS analysis; format: ADME
Liver microsomes [3] = experiment: Metabolic stability in human liver microsome assessed as level of GSH adduct at 20 uM by ion trap/orbitrap MS analysis; format: ADME

Row | Structure (SMILES) | pKa [1] | Stability (Liver microsomes [2]) | Stability (Liver microsomes [3])
1 | CN(C)[C@@H]1CCC[C@H]1Nc1nc(Nc2ccc3c(c2)CC(=O)N3)ncc1C(F)(F)F | 13.7 |  | 
2 | CN(C)[C@@H]1CCC[C@H]1Nc1nc(Nc2ccc3c(c2)CS(=O)(=O)N3)ncc1C(F)(F)F | 9.26 | Stable | Unstable
